Results on 7 molecules are retold here after patent US9790252B2, “2-fluorinated riboses and arabinoses and methods of use and synthesis” (CORNELL UNIVERSITY, priority 2009, dated 2017).

In general, EC50 refers to the midpoint of the concentration-response curve. Read a low EC50 as a more potent agent. The Ki is a measure of affinity in units of concentration, obtained from inhibition or displacement. The low end stands for tighter binding, the high end for weaker binding.

Data set [1] deals with HEK293 cells. Put plainly: Toxicity to HEK293 cells (MTT). In kind it is cell-based. As to conditions: for 100 μM absorbance / 100 μM relative viability: HEK293, 100 μM; for 100 μM absorbance / 100 μM relative viability / 500 μM absorbance / 500 μM relative viability: 12 hours; for 100 μM absorbance / 500 μM absorbance: 570 nm; for 100 μM relative viability / 500 μM relative viability: control = 1; for 500 μM absorbance / 500 μM relative viability: HEK293, 500 μM. The method, then:
1. HEK293 cells were seeded in 96-well plate at a density of 25,000 cells/well the day before the experiment starts;
(§1) 2. After the cells reach 50˜60% confluency, media was taken out, and 100 μL of fresh media was added to each well;
3. F-derivatives were plated at 100 and 500 μM (in duplicates) concentrations;
(§2) 4. After 12 hours' incubation at 37° C., the media was taken out, 100 μL of fresh media was added to each well along with 20 μL of 5 mg/mL of MTT solution (in PBS);
(§3) 5. After 1.5 hours' incubation at 37° C., media was taken out and 100 μL of DMSO was added to each well, the plate was mixed on shaker for 5 mins;
Absorbance was measured at 570 nm.
Assay for Determining Toxicity to HEK293 and Neuro2A Cells • 1. HEK293 and Neuro2A cells were seeded in 96-well plate at a density of 25,000 cells/well the day before the experiment starts; • 2. After the cells reach 50˜60% confluency, media was taken out, and 100 μL of fresh media was added to each well; • 3. Cl-derivatives were plated at 100 and 500 μM (in duplicates) concentrations; • 4. After 12 hours' incubation at 37° C., the media was taken out, 100 μL of fresh media was added to each well along with 20 μL of 5 mg/mL of MTT solution (in PBS); • 5. After 2 hours' incubation at 37° C., media was taken out and 100 μL of DMSO was added to each well, the plate was mixed on shaker for 5 mins; • 6. Absorbance was measured at 570 nm.

A further data set addresses T1, SirT2 (Homo sapiens, UniProt Q8IXJ6).
T1 sequence (Q8IXJ6 1-389): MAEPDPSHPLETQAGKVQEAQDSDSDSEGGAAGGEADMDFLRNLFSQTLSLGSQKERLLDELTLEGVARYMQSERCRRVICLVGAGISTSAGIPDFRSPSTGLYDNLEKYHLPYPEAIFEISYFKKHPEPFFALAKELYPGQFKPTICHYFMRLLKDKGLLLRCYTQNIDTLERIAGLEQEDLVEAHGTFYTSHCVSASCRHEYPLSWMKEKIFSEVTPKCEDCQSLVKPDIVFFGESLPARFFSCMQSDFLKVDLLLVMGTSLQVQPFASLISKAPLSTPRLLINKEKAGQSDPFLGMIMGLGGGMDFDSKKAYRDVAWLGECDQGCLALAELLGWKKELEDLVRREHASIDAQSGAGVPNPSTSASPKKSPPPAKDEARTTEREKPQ
Put plainly: SirT2 activity assay (HPLC of 2′- and 3′-AADPR). The format is biochemical. As to conditions: 800 μM NAD+, 500 μM H3 peptide, pH 7.5, 45 mins at 37° C. The method, then:
Reactions containing 800 μM NAD^+, 500 μM H3 peptide, and 100 mM phosphate buffer at pH 7.5, with varying concentrations of 2′-deoxy-2′-fluoro-nucleosides or nucleotides were initiated by addition of SirT2 enzyme to a concentration of 16.6 μM. Reactions were incubated for 45 mins at 37° C. and quenched by addition of trifluoroacetic acid to pH 2. After centrifugation to remove precipitates, reactions were injected on HPLC for activity analysis. Production of 2′- and 3′-AADPR were analyzed at 260 nm.
SirT2 Activity Assay: Reactions containing 800 μM NAD^+, 500 μM H3 peptide, and 100 mM phosphate buffer at pH 7.5, with varying concentrations of 2′-deoxy-2′-chloro-nucleosides were initiated by addition of SirT2 enzyme to a concentration of 16.6 μM. Reactions were incubated for 45 mins at 37° C. and quenched by addition of trifluoroacetic acid to pH 2. After centrifugation to remove precipitates, reactions were injected on HPLC for activity analysis. Production of 2′- and 3′-AADPR were analyzed at 260 nm.

For the next data set, the target named is T2, CD38 (Homo sapiens, UniProt P28907).
T2 sequence (P28907 1-300): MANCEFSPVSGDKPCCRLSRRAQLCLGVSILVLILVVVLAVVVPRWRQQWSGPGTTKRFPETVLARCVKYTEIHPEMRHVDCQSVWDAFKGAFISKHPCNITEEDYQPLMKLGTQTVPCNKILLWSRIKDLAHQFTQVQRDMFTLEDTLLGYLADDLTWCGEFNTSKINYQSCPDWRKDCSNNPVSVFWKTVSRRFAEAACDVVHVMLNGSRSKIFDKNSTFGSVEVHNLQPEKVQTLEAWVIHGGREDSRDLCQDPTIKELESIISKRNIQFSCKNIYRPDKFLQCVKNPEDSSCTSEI
Put plainly: CD38 activity assay (NGD+ turnover, 295 nm absorbance). In kind it is biochemical. The method, then:
CD38 (500 nM) in 100 mM phosphate buffer at pH 7.5 was incubated with various concentrations of 2′-deoxy-2′-fluoro-nucleosides and nucleotides for 30 mins at room temperature. 35 μL of the enzyme inhibitor solution was added to a cuvette containing 1 mL of 100 mM phosphate buffer at pH 7.5, containing 200 μM NGD^+. Reaction progress upon initiation by enzyme addition was monitored by 295 nm absorbance.
CD38 Activity Assay: CD38 (500 nM) in 100 mM phosphate buffer at pH 7.5 was incubated with various concentrations of 2′-deoxy-2′-chloro-nucleosides were for 30 mins at room temperature. 35 μL of the enzyme inhibitor solution was added to a cuvette containing 1 mL of 100 mM phosphate buffer at pH 7.5, containing 200 μM NGD^+. Reaction progress upon initiation by enzyme addition was monitored by 295 nm absorbance.

For data set [2], the system named is HEK293 cells. The data set is described as follows: Ribo-F-NR dose response in HEK293 cells (MTT). The format is cell-based. As to conditions: 12 hours; for absorbance: 570 nm. The method, then:
1. HEK293 cells were seeded in 96-well plate at a density of 10,000 cells/well the day before the experiment starts;
as §1
3. Ribo-F-NR (stock concentration=5.53 mM) were plated at 11, 22, 27, 44, 55, 83 and 111 μM (in triplicates) concentrations;
as §2, §3
6. Absorbance was measured at 570 nm.

The mark [3] stands for this setting: Homo sapiens, HEK293, HEK293, 2′-deoxy-2′-fluoro-nucleosides and nucleotides.
[4] abbreviates: MTT 2 hours, chloro-nucleosides.

In the case of `NC(=O)c1ccc[n+]([C@@H]2O[C@H](CO)C(O)C2F)c1` (stereo partly shown) [ara-F-NR, 1-(2′-deoxy-2′-fluoro-arabinofuranosyl)-nicotinamide], in the data set with HEK293 cells [1] (MTT 1.5 hours), the “100 μM absorbance” value is 1.5325 and the “500 μM absorbance” value came out at 1.25. Besides, in the data set with HEK293 cells [1], the “100 μM relative viability” value came out at 0.6741 and the “500 μM relative viability” value was 0.5499. The molecule also yielded an EC50 with HEK293 cells [1] (setting [3]) of 550 µM. Further, the affinity at SirT2, expressed as Ki, was 2300 µM.

For `NC(=O)c1ccc[n+]([C@@H]2O[C@H](COP(=O)([O-])O)C(O)C2(F)F)c1` (stereo partly shown) [gem-diF-NMN, 2′-deoxy-2′,2′-difluoro-ribo-nicotinamide mononucleotide], the “CD38 inhibition (in words)” value at CD38 (at 300 μM) was “inhibited at 300 μM”. Moreover, in the data set with HEK293 cells [1] (MTT 1.5 hours), the “100 μM absorbance” value is given as 1.559 and the “500 μM absorbance” value was determined as 0. Further, in the data set with HEK293 cells [1], the “100 μM relative viability” value is 0.6858 and the “500 μM relative viability” value turned out to be 0. This molecule also gave an EC50 in the data set with HEK293 cells [1] (setting [3]) of 118 µM. Also, on SirT2, the Ki was found to be 162 µM.

For the molecule `NC(=O)c1ccc[n+]([C@@H]2O[C@H](CO)[C@@H](O)C2(F)F)c1` [gem-diF-NR, 1-(2′-deoxy-2′,2′-difluoro-ribofuranosyl)-nicotinamide], in the data set on HEK293 cells [1] (MTT 1.5 hours), the “100 μM absorbance” value is 1.679 and the “500 μM absorbance” value was found to be 1.43. Also, in the data set with HEK293 cells [1], the “100 μM relative viability” value came to 0.7386 and the “500 μM relative viability” value was found to be 0.6289. The molecule further had an EC50 in the data set on HEK293 cells [1] (setting [3]) of 846 µM. Besides, the “SirT2 Ki” value on SirT2 is on record as “Ki = high mM”.

In the case of `NC(=O)c1ccc[n+]([C@@H]2O[C@H](COP(=O)([O-])O)C(O)C2F)c1` (stereo partly shown) [ribo-F-NMN, 2′-deoxy-2′-fluoro-ribo-nicotinamide mononucleotide], in the data set with HEK293 cells [1] (MTT 1.5 hours), the “100 μM absorbance” value was determined as 1.2275 and the “500 μM absorbance” value was 0.9845. Further, in the data set with HEK293 cells [1], the “100 μM relative viability” value is recorded as 0.54 and the “500 μM relative viability” value is on record as 0.4331. Further, the EC50 in the data set on HEK293 cells [1] (HEK293, 2′-deoxy-2′-fluoro-nucleosides and nucleotides) turned out to be 241 µM. On SirT2, this molecule displayed a Ki of 450 µM.

Regarding `NC(=O)c1ccc[n+]([C@@H]2O[C@H](CO)C(O)[C@@H]2F)c1` (stereo partly drawn) [ribo-F-NR, 1-(2-deoxy-2-fluoro-D-ribofuranosyl)-nicotinamide], the relative viability is reported as 0.8067 with HEK293 cells [2] (HEK293, 11 μM); 0.652 in the data set with HEK293 cells [2] (HEK293, 22 μM); 0.4806 with HEK293 cells [2] (HEK293, 27 μM); 0.2539 in the data set on HEK293 cells [2] (HEK293, 44 μM); 0.1163 in the data set on HEK293 cells [2] (HEK293, 55.3 μM); 0.04651 in the data set with HEK293 cells [2] (HEK293, 83 μM). The molecule also came in with a relative viability in the data set with HEK293 cells [2] (HEK293, 111 μM) of 0.008358. For the same molecule, the absorbance amounted to 0.1041 in the data set with HEK293 cells [2] (HEK293, 11 μM); 0.08411 in the data set on HEK293 cells [2] (HEK293, 22 μM); 0.062 in the data set on HEK293 cells [2] (HEK293, 27 μM); 0.03275 with HEK293 cells [2] (HEK293, 44 μM); 0.015 with HEK293 cells [2] (HEK293, 55.3 μM); 0.006 with HEK293 cells [2] (HEK293, 83 μM). In addition, the absorbance in the data set with HEK293 cells [2] (HEK293, 111 μM) is recorded as 0.001078. Also, the “100 μM absorbance” value with HEK293 cells [1] (MTT 1.5 hours) amounted to 0.019. The “100 μM relative viability” value in the data set on HEK293 cells [1] is listed as 0.008358. For the same molecule, the “500 μM absorbance” value in the data set with HEK293 cells [1] (MTT 1.5 hours) turned out to be 0.0015. Besides, in the data set with HEK293 cells [1], the “500 μM relative viability” value was 0.00066. Further, in the data set with HEK293 cells [1] (setting [3]), the EC50 turned out to be 17 µM. The Ki on SirT2 stood at 1730 µM.

As to `NC(=O)c1ccc[n+]([C@@H]2O[C@H](CO)C(O)C2Cl)c1` (stereo partly drawn) [β-ara-Cl-NR, 1-(2′-deoxy-2′-chloro-arabinofuranosyl)-nicotinamide], in the data set with HEK293 cells [1] (setting [4]), the “100 μM absorbance” value is recorded as 0 and the “500 μM absorbance” value is listed as 0. In addition, in the data set with HEK293 cells [1] (chloro-nucleosides), the “100 μM relative viability” value is reported as 0 and the “500 μM relative viability” value came out at 0. For the same molecule, the EC50 with HEK293 cells [1] (Homo sapiens, HEK293, HEK293, 2′-deoxy-2′-chloro-nucleosides) was determined as 5 µM. Further, the Ki on SirT2 stood at 3200 µM.

As for `NC(=O)c1ccc[n+]([C@@H]2O[C@H](CO)C(O)C2(Cl)Cl)c1` (stereo partly drawn) [β-gem-diCl-NR, 1-(2′-deoxy-2′,2′-dichloro-ribofuranosyl)-nicotinamide], the inhibition at 500 µM at CD38 (at 500 μM, read-out: CD38 % inhibited) amounted to 50%. Further, in the data set on HEK293 cells [1] (setting [4]), the “100 μM absorbance” value was found to be 2.05 and the “500 μM absorbance” value is 1.63. In addition, in the data set with HEK293 cells [1] (chloro-nucleosides), the “100 μM relative viability” value was 0.8436 and the “500 μM relative viability” value came to 0.6708. Moreover, the “kills % of HEK293 cells” value in the data set with HEK293 cells [1] (HEK293, at 500 μM) was “kills 30% at 500 μM”. In addition, affinity on SirT2 was put at a Ki of 403 µM.
